{
  "source": "patent US10590129B2",
  "about": "(Incozen Therapeutics Pvt. Ltd., priority 2010, dated 2020)",
  "origin": "cited, not measured here",
  "key": {"c-Met": {"target": "c-Met (Homo sapiens, UniProt P08581)", "sequence (P08581 25-1390)": "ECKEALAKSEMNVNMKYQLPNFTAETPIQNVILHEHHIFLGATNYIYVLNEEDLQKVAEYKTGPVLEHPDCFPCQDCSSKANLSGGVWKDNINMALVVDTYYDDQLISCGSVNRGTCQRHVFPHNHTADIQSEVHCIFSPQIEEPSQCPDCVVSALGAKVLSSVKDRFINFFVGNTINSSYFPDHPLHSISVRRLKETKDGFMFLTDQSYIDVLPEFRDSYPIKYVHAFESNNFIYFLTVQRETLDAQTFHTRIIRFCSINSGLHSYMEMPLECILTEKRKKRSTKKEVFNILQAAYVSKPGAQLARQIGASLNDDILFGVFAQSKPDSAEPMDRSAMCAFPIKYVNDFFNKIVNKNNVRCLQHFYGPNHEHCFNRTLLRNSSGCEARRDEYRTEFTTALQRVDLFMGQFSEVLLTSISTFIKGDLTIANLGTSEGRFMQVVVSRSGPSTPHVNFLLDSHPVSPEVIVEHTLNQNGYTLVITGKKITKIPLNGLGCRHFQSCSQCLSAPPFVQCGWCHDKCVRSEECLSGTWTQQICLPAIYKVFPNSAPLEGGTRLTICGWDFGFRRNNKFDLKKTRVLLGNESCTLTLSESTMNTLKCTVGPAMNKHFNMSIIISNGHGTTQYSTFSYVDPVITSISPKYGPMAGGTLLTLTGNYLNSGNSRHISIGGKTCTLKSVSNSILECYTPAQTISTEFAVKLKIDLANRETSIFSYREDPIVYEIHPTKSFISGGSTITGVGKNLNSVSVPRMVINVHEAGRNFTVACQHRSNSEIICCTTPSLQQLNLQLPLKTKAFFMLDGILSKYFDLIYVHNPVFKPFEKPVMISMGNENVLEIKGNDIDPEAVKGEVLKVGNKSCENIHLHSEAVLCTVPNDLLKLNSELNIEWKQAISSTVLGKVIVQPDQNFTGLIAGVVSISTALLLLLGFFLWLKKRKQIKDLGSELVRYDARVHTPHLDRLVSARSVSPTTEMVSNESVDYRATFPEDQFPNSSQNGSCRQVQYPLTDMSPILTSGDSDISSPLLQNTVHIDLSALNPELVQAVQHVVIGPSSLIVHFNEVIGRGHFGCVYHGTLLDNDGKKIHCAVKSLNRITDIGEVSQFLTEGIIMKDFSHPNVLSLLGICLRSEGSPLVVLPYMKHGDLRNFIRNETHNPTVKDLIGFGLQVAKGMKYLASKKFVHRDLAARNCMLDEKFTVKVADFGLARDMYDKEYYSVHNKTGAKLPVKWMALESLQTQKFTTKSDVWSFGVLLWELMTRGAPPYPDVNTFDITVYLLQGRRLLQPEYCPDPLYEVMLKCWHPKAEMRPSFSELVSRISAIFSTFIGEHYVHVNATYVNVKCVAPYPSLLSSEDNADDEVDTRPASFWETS", "conditions": "cited from earlier work"}, "RON": {"target": "RON (Homo sapiens, UniProt Q04912)", "sequence (Q04912 25-1400, species assumed)": "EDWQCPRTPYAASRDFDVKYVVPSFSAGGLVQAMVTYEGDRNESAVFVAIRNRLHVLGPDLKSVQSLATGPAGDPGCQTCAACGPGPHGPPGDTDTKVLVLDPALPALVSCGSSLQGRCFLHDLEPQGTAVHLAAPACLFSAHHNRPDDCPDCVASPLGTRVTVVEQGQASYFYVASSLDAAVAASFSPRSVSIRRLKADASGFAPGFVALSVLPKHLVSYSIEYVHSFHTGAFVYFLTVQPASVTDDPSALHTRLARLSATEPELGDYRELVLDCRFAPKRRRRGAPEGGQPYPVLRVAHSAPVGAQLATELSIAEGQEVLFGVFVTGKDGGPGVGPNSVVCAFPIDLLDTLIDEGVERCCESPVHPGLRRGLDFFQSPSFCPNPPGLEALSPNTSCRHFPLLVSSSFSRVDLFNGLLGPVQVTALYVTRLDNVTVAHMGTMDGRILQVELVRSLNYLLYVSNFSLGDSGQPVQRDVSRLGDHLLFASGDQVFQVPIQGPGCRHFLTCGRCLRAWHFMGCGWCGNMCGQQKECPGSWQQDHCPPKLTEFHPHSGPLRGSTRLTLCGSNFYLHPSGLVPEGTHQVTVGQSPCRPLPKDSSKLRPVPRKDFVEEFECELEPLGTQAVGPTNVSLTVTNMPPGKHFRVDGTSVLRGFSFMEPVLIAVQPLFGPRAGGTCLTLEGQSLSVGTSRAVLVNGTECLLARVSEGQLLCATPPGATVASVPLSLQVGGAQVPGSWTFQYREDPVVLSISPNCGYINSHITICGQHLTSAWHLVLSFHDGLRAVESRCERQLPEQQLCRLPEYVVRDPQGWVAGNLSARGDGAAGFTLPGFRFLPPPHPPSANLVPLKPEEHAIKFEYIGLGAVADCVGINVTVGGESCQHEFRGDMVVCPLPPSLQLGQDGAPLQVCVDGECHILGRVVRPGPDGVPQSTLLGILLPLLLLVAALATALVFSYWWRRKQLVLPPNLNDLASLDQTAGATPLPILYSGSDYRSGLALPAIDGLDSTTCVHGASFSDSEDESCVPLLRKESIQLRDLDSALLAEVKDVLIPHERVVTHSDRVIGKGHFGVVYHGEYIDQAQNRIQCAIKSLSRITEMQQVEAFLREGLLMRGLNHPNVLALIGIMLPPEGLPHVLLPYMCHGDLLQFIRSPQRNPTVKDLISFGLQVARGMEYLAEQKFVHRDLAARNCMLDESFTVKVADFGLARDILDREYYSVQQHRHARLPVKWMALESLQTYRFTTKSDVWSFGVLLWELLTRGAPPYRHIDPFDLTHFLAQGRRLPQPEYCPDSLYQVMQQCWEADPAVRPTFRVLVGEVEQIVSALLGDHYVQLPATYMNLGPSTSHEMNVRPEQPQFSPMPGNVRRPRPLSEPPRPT", "conditions": "cited from earlier work"}},
  "data": [
    {"smiles": "COc1ccc2c(Oc3ccc(NC(=O)c4c(C)n(CC(C)(C)O)n(-c5ccccc5)c4=O)nc3)ccnc2c1", "note": "[AMG-458]", "values": [
      {"measurement": "IC50", "setting": "c-Met", "value": 4, "unit": "nM"},
      {"measurement": "IC50", "setting": "RON", "value": 9, "unit": "nM"}
    ]}
  ]
}
